According to US8859534B2, “2-carboxamide-7-piperazinyl-benzofuran derivatives” (AstraZeneca AB, priority 2009, dated 2014):

Legend:
[1] = molecular target: 5-HT1A receptor (Homo sapiens (Human), UniProt P08908); assay: 5-HT1A receptor competition binding assay (SPA, [3H]-8-OH-DPAT); settings: membranes of CHO cells expressing 5-HT1A receptors; radioligand [3H]-8-OH-DPAT 0.15-0.2 nM
Excerpt: (§1) Assays that were used to measure affinity of the compounds of the present invention for 5-HT1A and 5-HT1B receptors are described in J. Recept Signal Transduct. Res. 22:483-495 (2002) and Naunyn-Schmiedeberg's Arch Pharmacol. 356:328-334 (1997) and incorporated by reference herein. These assays were be used with some modifications:
(§2) For the binding assay stably transfected chinese hamster ovary (CHO) cell lines expressing 5-HT1A receptors or 5-HT1B receptors were harvested by centrifugation at 300×g for 10 min and resuspended in 10 mM Tris-HCl, 5 mM EDTA at pH 7.4. The cells were pooled, recentrifuged and resuspended before homogenisation using a Dounce homogeniser (“type B”). Cell membranes were centrifuged at 48 000×g for 10 min and then resuspended in harvesting buffer using an Ultra-Turrax T8 (IKA Labortechnik, Germany), aliquots were stored frozen in −70° C.
Frozen membrane preparations were thawed, homogenized with an Ultra-Turrax and mixed with SPA beads (YSI coated WGA, GE Healthcare/Amersham, Buckinghamshire, UK) in assay buffer containing 50 mM Tris-Base, 4 mM MgCl2, 4 mM CaCl2 (only 5-HT1B), 1 mM EDTA, and adjusted to pH 7.4 with HCl. […] The binding assays were performed in 384-well plates in a final volume of 90 μL/well with the following additions: 9 μL binding buffer; 1 μL compound/DMSO/nonspecific; 20 μL radioligand; and 60 μL beads/membrane mixture. Non-specific binding was defined by using 10 μM WAY100635 for 5-HT1A and 10 μM Methiothepin for 5-HT1B. The assay plates were incubated for 4 hours where after the plates are counted in a Wallac 1450 Microbeta Trilux counter (PerkinElmer LifeScience, US) or similar. Data from the experiments were analyzed using a four parameter logistic equation as follows: Y=Bottom+(Top-Bottom)/1+10^(LogEC50-X)nH.

[2] = molecular target: 5-HT1B receptor (Homo sapiens (Human), UniProt P28222); assay: 5-HT1B receptor competition binding assay (SPA, [3H]-GR125743); settings: for Ki: membranes of CHO cells expressing 5-HT1B receptors, radioligand [3H]-GR125743 0.15-0.2 nM
Excerpt: as §1, §2
Frozen membrane preparations were thawed, homogenized with an Ultra-Turrax and mixed with SPA beads (YSI coated WGA, GE Healthcare/Amersham, Buckinghamshire, UK) in assay buffer containing 50 mM Tris-Base, 4 mM MgCl2, 4 mM CaCl2 (only 5-HT1B), 1 mM EDTA, and adjusted to pH 7.4 with HCl. The beads/membrane solution, final concentration 100 pM receptors for 5-HT1A, 300 pM receptors for 5-HT1B and 0.5 mg SPA beads/well, was pre-incubated in room temperature with stirring for 30-60 min. […] Five (log interval, 10 μM to 1 nM, final concentration) or ten serial dilutions (½-log interval, 10 μM to 0.32 nM, final concentration) of compounds were prepared in DMSO from 10 mM stock solutions. The binding assays were performed in 384-well plates in a final volume of 90 μL/well with the following additions: 9 μL binding buffer; 1 μL compound/DMSO/nonspecific; 20 μL radioligand; and 60 μL beads/membrane mixture. Non-specific binding was defined by using 10 μM WAY100635 for 5-HT1A and 10 μM Methiothepin for 5-HT1B. The assay plates were incubated for 4 hours where after the plates are counted in a Wallac 1450 Microbeta Trilux counter (PerkinElmer LifeScience, US) or similar. Data from the experiments were analyzed using a four parameter logistic equation as follows: Y=Bottom+(Top-Bottom)/1+10^(LogEC50-X)nH.
• Jerning E., Rosqvist S., Mohell N. (2002) NAD-299 antagonises 5-HT-stimulated and Spiperone-inhibited [^35S]GTPγS binding in cloned 5-HT1A receptors. J Recept Signal Transduct Res 22:483-495. • Doménech T., Beleta J., Palacios J. M. (1997) Characterization of human serotonin 1D and 1B receptors using [^3H]-GR-125743, a novel radiolabelled serotonin 5HT1D/1B receptor antagonist. Naunyn-Schmiedeberg's Arch Pharmacol 356:328-334.

Chain of 5-HT1B receptor (P28222 whole entry): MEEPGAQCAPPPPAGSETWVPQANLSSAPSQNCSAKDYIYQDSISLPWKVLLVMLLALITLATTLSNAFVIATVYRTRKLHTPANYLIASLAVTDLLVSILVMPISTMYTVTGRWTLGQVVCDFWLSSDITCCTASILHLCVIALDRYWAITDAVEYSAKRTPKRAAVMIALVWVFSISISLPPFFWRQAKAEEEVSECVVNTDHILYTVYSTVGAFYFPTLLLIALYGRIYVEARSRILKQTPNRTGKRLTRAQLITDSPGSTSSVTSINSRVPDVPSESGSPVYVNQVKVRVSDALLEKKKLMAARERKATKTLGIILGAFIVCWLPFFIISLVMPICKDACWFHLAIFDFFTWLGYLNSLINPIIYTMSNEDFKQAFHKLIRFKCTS
Chain of 5-HT1A receptor (P08908 whole entry): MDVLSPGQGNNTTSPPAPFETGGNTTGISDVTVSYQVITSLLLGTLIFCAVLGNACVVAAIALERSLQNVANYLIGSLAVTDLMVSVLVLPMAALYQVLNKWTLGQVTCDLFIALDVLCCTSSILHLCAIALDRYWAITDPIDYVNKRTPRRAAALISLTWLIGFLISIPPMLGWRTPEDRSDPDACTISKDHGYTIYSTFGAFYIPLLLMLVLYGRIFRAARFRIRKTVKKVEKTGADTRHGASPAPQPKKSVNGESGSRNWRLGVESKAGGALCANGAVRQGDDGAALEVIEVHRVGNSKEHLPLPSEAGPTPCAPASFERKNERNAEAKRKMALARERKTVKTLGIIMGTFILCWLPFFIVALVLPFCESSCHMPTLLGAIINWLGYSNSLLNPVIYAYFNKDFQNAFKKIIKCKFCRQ

Ki [1] [nM]	Ki [2] [nM]	Kd ([2]; 5-HT1B receptor, Kd used in the calculation of Ki, read-out: Kd of radioligand, saturation binding studies) [nM]	SMILES
1.4	16		O=C(c1cc2cccc(N3CCN(CCc4ccccn4)CC3)c2o1)N1CCC1 [Example 15, Azetidin-1-yl(7-(4-(2-(pyridin-2-yl)ethyl)piperazin-1-yl)benzofuran-2-yl)methanone]
0.78	4.4		O=C(c1cc2cccc(N3CCN(CCc4ccccn4)CC3)c2o1)N1CCCC1 [Example 16, (7-(4-(2-(Pyridin-2-yl)ethyl)piperazin-1-yl)benzofuran-2-yl)(pyrrolidin-1-yl)methanone]
2	3.3		CS(=O)(=O)Cc1ccc(CNC(=O)c2cc3cccc(N4CCN(CCc5ccccn5)CC4)c3o2)cc1 [Example 17, N-(4-(Methylsulfonylmethyl)benzyl)-7-(4-(2-(pyridin-2-yl)ethyl)piperazin-1-yl)benzofuran-2-carboxamide]
1.3	0.7		COc1cccc(CCNC(=O)c2cc3cccc(N4CCN(CCc5ccccn5)CC4)c3o2)c1 [Example 18, N-(3-Methoxyphenethyl)-7-(4-(2-(pyridin-2-yl)ethyl)piperazin-1-yl)benzofuran-2-carboxamide]
0.99	10		CN(Cc1cccc(S(C)(=O)=O)c1)C(=O)c1cc2cccc(N3CCN(CCc4ccccn4)CC3)c2o1 [Example 19, N-Methyl-N-(3-(methylsulfonyl)benzyl)-7-(4-(2-(pyridin-2-yl)ethyl)piperazin-1-yl)benzofuran-2-carboxamide]
1.1	7.6		N#Cc1ccc(CNC(=O)c2cc3cccc(N4CCN(CCc5ccccn5)CC4)c3o2)cn1 [Example 20, N-((6-Cyanopyridin-3-yl)methyl)-7-(4-(2-(pyridin-2-yl)ethyl)piperazin-1-yl)benzofuran-2-carboxamide]
2.6	63		CN(Cc1cccnc1)C(=O)c1cc2cccc(N3CCN(CCc4ccccn4)CC3)c2o1 [Example 21, N-Methyl-7-(4-(2-(pyridin-2-yl)ethyl)piperazin-1-yl)-N-(pyridin-3-ylmethyl)benzofuran-2-carboxamide]
	17		Cn1cnc(CCNC(=O)c2cc3cccc(N4CCN(CCc5ccccn5)CC4)c3o2)c1 [Example 30, N-(2-(1-Methyl-1H-imidazol-4-yl)ethyl)-7-(4-(2-(pyridin-2-yl)ethyl)piperazin-1-yl)benzofuran-2-carboxamide]
	66		COc1ccnc(CCN2CCN(c3cccc4cc(C(=O)N(C)C)oc34)CC2)c1 [Example 39, 7-(4-(2-(4-Methoxypyridin-2-yl)ethyl)piperazin-1-yl)-N,N-dimethylbenzofuran-2-carboxamide]
	73		CN(C)C(=O)c1cc2cccc(N3CCN(CCc4cc(C#N)ccn4)CC3)c2o1 [Example 41, 7-(4-(2-(4-Cyanopyridin-2-yl)ethyl)piperazin-1-yl)-N,N-dimethylbenzofuran-2-carboxamide]
0.16			COc1cccnc1CCN1CCN(c2cccc3cc(C(=O)N(C)C)oc23)CC1 [Example 48, 7-(4-(2-(3-Methoxy-2-pyridyl)ethyl)piperazin-1-yl)-N,N-dimethylbenzofuran-2-carboxamide]
	14		CC(=O)N1CCc2cc(CCN3CCN(c4cccc5cc(C(=O)N6CCC6)oc45)CC3)ccc21 [Example 49, 1-(5-(2-(4-(2-(Azetidine-1-carbonyl)benzofuran-7-yl)piperazin-1-yl)ethyl)indolin-1-yl)ethanone]
		0.87	COc1ccc(NC(=O)c2ccc(-c3ccncc3)c(C)c2)cc1N1CCN(C)CC1 [[^3H]-GR125743, reference compound]

More lines, now with the values behind:

SMILES	Ki [1] [nM]	Ki [2] [nM]	Kd ([2]; 5-HT1B receptor, Kd used in the calculation of Ki, read-out: Kd of radioligand, saturation binding studies) [nM]
O=C(NCc1ccccn1)c1cc2cccc(N3CCN(CCc4ccccn4)CC3)c2o1 [Example 1, 7-(4-(2-(Pyridin-2-yl)ethyl)piperazin-1-yl)-N-(pyridin-2-ylmethyl)benzofuran-2-carboxamide]	1.3	19	
O=C(Nc1ccc(N2CCOCC2)cc1)c1cc2cccc(N3CCN(CCc4ccccn4)CC3)c2o1 [Example 2, N-(4-Morpholinophenyl)-7-(4-(2-(pyridin-2-yl)ethyl)piperazin-1-yl)benzofuran-2-carboxamide]	1.3	1.1	
O=C(NC1CCN(c2ccccc2)CC1)c1cc2cccc(N3CCN(CCc4ccccn4)CC3)c2o1 [Example 3, N-(1-Phenylpiperidin-4-yl)-7-(4-(2-(pyridin-2-yl)ethyl)piperazin-1-yl)benzofuran-2-carboxamide]	0.14	0.52	
CS(=O)(=O)c1ccc(CNC(=O)c2cc3cccc(N4CCN(CCc5ccccn5)CC4)c3o2)cc1 [Example 4, N-(4-(Methylsulfonyl)benzyl)-7-(4-(2-(pyridin-2-yl)ethyl)piperazin-1-yl)benzofuran-2-carboxamide]	0.2	1.8	
Cn1cnc(CNC(=O)c2cc3cccc(N4CCN(CCc5ccccn5)CC4)c3o2)c1 [Example 5, N-((1-Methyl-1H-imidazol-4-yl)methyl)-7-(4-(2-(pyridin-2-yl)ethyl)piperazin-1-yl)benzofuran-2-carboxamide]	2.2	37	
CC(=O)N1CCC(NC(=O)c2cc3cccc(N4CCN(CCc5ccccn5)CC4)c3o2)CC1 [Example 6, N-(1-Acetylpiperidin-4-yl)-7-(4-(2-(pyridin-2-yl)ethyl)piperazin-1-yl)benzofuran-2-carboxamide]		82	
CC(NC(=O)c1cc2cccc(N3CCN(CCc4ccccn4)CC3)c2o1)c1ccccn1 (stereo not shown) [Example 7, N-(1-(Pyridin-2-yl)ethyl)-7-(4-(2-(pyridin-2-yl)ethyl)piperazin-1-yl)benzofuran-2-carboxamide]	0.59	9	
O=C(NC1CCN(c2ncccc2Cl)CC1)c1cc2cccc(N3CCN(CCc4ccccn4)CC3)c2o1 [Example 8, N-(1-(3-Chloropyridin-2-yl)piperidin-4-yl)-7-(4-(2-(pyridin-2-yl)ethyl)piperazin-1-yl)benzofuran-2-carboxamide]	0.29	0.28	
N#Cc1ccc(CNC(=O)c2cc3cccc(N4CCN(CCc5ccccn5)CC4)c3o2)cc1 [Example 9, N-(4-Cyanobenzyl)-7-(4-(2-(pyridin-2-yl)ethyl)piperazin-1-yl)benzofuran-2-carboxamide]	0.44		
CN(C)C(=O)c1cc2cccc(N3CCN(CCc4ccccn4)CC3)c2o1 [Example 11, N,N-Dimethyl-7-(4-(2-(pyridin-2-yl)ethyl)piperazin-1-yl)benzofuran-2-carboxamide]	0.16	2.1	
CNC(=O)c1cc2cccc(N3CCN(CCc4ccccn4)CC3)c2o1 [Example 12, N-Methyl-7-(4-(2-(pyridin-2-yl)ethyl)piperazin-1-yl)benzofuran-2-carboxamide]	0.11	0.88	
O=C(NC1CC1)c1cc2cccc(N3CCN(CCc4ccccn4)CC3)c2o1 [Example 13, N-Cyclopropyl-7-(4-(2-(pyridin-2-yl)ethyl)piperazin-1-yl)benzofuran-2-carboxamide]		6.5	
O=C(NC1CC(F)(F)C1)c1cc2cccc(N3CCN(CCc4ccccn4)CC3)c2o1 [Example 14, N-(3,3-Difluorocyclobutyl)-7-(4-(2-(pyridin-2-yl)ethyl)piperazin-1-yl)benzofuran-2-carboxamide]	3.3	42	
